Literature values as cited in patent publication US12291505B2, “Methods for the synthesis of deuterated dextromethorphan” (AVANIR PHARMACEUTICALS, INC., priority 2016, dated 2025).

Columns and labels:
[1] = target: N-methyl-D-aspartate (NMDA) receptor; details: weak uncompetitive antagonist
[2] = target: uptake of norepinephrine; details: read-out: Ki, inhibition of uptake of norepinephrine
[3] = target: sigma-1 (Homo sapiens, UniProt Q99720); details: read-out: Ki, sigma-1; sigma-1 agonist
[4] = target: norepinephrine transporter (Homo sapiens, UniProt P23975); details: read-out: Ki, norepinephrine transporter affinity
[5] = co-administered with dextromethorphan

sigma-1, sequence (Q99720 whole entry): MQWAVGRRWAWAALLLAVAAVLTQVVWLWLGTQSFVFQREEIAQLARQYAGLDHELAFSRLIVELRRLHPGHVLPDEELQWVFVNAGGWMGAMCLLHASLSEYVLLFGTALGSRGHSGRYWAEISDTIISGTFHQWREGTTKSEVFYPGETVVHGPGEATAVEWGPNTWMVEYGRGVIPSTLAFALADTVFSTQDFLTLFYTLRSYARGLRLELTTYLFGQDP
norepinephrine transporter, sequence (P23975 whole entry, species assumed): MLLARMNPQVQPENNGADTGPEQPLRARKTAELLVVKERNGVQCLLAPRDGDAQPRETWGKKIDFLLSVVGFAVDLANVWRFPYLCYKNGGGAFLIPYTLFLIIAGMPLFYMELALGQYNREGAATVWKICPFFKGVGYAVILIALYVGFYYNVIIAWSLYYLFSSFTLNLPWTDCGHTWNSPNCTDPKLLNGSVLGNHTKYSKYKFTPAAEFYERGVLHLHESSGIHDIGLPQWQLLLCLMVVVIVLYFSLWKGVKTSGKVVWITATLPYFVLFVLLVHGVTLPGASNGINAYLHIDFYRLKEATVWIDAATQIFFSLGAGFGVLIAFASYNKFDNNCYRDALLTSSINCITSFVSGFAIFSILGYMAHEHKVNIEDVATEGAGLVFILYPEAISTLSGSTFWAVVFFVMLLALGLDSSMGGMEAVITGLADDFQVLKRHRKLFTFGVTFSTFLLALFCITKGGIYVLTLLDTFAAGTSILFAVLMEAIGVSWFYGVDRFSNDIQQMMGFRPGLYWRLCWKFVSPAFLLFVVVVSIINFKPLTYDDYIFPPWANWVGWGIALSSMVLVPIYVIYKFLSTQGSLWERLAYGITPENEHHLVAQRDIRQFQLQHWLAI

SMILES	Ki [1] [nM]	Ki [2] [nM]	Ki [3] [nM]	Ki [4] [µM]	effect on dextromethorphan in the blood [5]
COc1ccc2c(c1)[C@]13CCCC[C@@H]1[C@H](C2)N(C)CC3 [DM, (+)-3-methoxy-17-methyl-(9α,13α,14α)-morphinan]	1500	240	200	13	
C=C[C@H]1C[N@@]2CC[C@H]1C[C@@H]2[C@@H](O)c1ccnc2ccc(OC)cc12 [Quinidine]					greatly increases the quantity of dextromethorphan circulating in the blood
